Values joined by “and” are separate entries in the source; they are usually repeats but may differ in a detail not shown here. Identical values can stand only once. Like-named read-outs stand apart in the source and are kept apart here.
Experiments:
CYP1B1 [1] = target: T1, CYP1B1 (Homo sapiens, UniProt Q16678); experiment: EROD assay in inducible CYP1B1 cell line; format: cell-based
T1 construct: expressed in transfected cells
T1 sequence (Q16678 1-543): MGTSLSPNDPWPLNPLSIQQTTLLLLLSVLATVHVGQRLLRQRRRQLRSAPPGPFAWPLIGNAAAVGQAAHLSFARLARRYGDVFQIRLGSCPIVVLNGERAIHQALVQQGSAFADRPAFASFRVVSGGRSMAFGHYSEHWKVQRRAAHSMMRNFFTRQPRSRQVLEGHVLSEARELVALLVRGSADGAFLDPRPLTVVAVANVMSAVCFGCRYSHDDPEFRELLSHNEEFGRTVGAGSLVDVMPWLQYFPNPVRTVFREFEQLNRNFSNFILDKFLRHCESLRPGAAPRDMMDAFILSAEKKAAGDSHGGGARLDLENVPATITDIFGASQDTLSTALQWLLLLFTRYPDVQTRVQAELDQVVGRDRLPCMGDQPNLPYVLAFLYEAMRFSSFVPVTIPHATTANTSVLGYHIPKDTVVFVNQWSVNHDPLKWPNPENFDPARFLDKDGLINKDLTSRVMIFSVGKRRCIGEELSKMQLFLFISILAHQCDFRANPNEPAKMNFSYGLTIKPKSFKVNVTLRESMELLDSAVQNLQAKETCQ
Experimental: (§1) The activity of the inhibitors was assessed in a novel cell based assay generated for the purpose of this project. Enzymatic turnover of CYP1B1 was measured using the ethoxy-resorufin-O-deethylase (EROD) assay with the fluorescent substrate, resorufin ethyl ether. Cell lines were generated where the gene for CYP1B1 alone or CYP1B1 and cytochrome P450 reductase (CPR) were both under the control of an inducible promoter. A cell line was generated for counter screening where the gene for CYP1A1 was used. CYP1A1 is the closest family member to CYP1B1.

HEK = experiment: Cytotoxicity, resazurin, 72 hours after compound addition; format: cell-based; settings: Table 3, HEK
Experimental: (§2) Cytotoxicity was assessed at 72 hours after compound addition using resazurin. The compounds that function as selective 1B1 inhibitors had no effect on cell health. This is an essential feature for any chemopreventative agent or molecules intended to block the detrimental action of an enzyme.

[2] = as above; format: cell-based; settings: human, HEK cells
Experimental: as §2

CYP1A1 = target: T2, CYP1A1 (Homo sapiens, UniProt P04798); experiment: EROD assay in CYP1A1 counter-screen cell line; format: cell-based; settings: for SI 1B1:1A1: selectivity index
T2 construct: expressed in transfected cells
T2 sequence (P04798 1-512): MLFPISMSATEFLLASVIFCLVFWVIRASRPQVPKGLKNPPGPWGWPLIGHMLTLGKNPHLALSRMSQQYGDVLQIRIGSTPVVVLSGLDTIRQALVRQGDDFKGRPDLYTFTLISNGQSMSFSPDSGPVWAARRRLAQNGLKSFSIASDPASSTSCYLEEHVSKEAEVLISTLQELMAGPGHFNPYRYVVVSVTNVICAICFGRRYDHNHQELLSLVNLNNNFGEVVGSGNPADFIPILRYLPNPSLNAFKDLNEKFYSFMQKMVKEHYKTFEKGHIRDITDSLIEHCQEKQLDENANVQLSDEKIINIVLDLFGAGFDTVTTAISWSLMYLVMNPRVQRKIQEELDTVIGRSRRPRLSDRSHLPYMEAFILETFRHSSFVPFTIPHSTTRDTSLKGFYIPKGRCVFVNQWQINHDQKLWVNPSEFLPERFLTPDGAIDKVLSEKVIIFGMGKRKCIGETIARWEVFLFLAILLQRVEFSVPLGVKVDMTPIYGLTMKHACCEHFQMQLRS
Experimental: as §1

[3] = target: T3, pooled human liver microsomes (pHLMs) (Homo sapiens, UniProt P05177); experiment: EROD counterscreen in pooled human liver microsomes; format: biochemical; settings: for IC50: human, microsomes; for SI 1B1:HLM: selectivity index
T3 sequence (P05177 2-516): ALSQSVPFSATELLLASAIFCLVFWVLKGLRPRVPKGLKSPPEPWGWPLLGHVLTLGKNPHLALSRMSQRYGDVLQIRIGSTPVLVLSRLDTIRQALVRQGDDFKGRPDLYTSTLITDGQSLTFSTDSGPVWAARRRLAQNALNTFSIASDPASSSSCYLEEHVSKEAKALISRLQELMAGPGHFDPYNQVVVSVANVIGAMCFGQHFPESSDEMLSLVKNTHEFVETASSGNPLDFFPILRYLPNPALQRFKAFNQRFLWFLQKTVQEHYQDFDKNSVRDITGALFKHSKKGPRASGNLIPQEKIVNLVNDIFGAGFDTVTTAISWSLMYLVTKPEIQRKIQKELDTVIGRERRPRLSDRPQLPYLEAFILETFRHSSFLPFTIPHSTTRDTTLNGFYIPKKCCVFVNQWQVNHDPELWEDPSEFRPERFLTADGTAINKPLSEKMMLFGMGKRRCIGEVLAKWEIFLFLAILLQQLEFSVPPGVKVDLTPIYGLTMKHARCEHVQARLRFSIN
Text: (§3) Human liver microsomes were used as a counterscreen to experimentally determine the magnitude of inhibitor selectivity.

CYP1B1 [4] = target: T1, CYP1B1; experiment: CYP1B1 degradation on binding (FIG. 2C); format: cell-based; settings: 0.1 μM
Text: (§4) FIG. 2A includes a dose response of 547 in EROD assay in CYP1B1 cell line (blue) vs. 1A1 cell line (black). […] 510 is a control compound that lacks a coordinating group. […] All other conditions are following CYP1B1 induction with benzo[a]pyrene. Spheroid shown in inset.

MCF7 tumor spheroids = format: cell-based; settings: 547 0.5 μM with cisplatin 100 μM; CYP1B1 induced with benzo[a]pyrene
Text: 510 is a control compound that lacks a coordinating group. […] All other conditions are following CYP1B1 induction with benzo[a]pyrene. Spheroid shown in inset.

CYP1B1 [5] = target: T1, CYP1B1; experiment: Wash out experiment (FIG. 2B); format: cell-based
Text: as §4

[6] = target: T3, pooled human liver microsomes (pHLMs); experiment: EROD counterscreen in pooled human liver microsomes; format: biochemical; parameters: IC50 pHLM; EROD assay; settings: human, microsomes, Table 2; EROD assay
Text: as §3

[7] = Table 1, 72 hours, resazurin, read-out: Cytotoxicity IC50
[8] = Table 2, EROD assay, read-out: IC50 CYP1B1
[9] = Table 2, EROD assay, read-out: IC50 CYP1A1

SMILES	IC50 (CYP1B1 [1]; Table 3, read-out: IC50 1B1)	IC50 ([3]; Table 3, read-out: IC50 pHLM)	IC50 (CYP1A1; Table 3, read-out: IC50 1A1)	IC50 (CYP1B1 [1]; [8])	IC50 (CYP1A1; [9])	SI 1B1:1A1 (CYP1A1)	IC50 [6]	SI 1B1:HLM [3]	further results
COc1ccc(/C=C/c2ccncn2)c(OC)c1 [GL433]	76 nM	910 ± 370 nM							activity as CYP1B1 inhibitor, in words (CYP1B1 [1]): potent; IC50 (CYP1B1 [1]; Table 1, read-out: CYP1B1 IC50): 76 nM; IC50 (HEK; read-out: HEK cytotoxicity): > 10000 nM; IC50 at 72 h [2, 7]: > 10000 nM; IC50 (CYP1A1; human, probe resorufin ethyl ether, Table 1, read-out: CYP1A1 IC50): 10000 nM; IC50 (CYP1A1; human, probe resorufin ethyl ether, Table 3, read-out: IC50 1A1): 10000 nM; IC50 ([3]; Table 1, read-out: hLM IC50): 1100 nM
C#CCOc1ccc(-c2nc3ccccc3c(=O)[nH]2)cc1 [GL510]		857 nM							IC50 at 72 h ([2]; Table 3, HEK, read-out: HEK cytotoxicity): 406 nM
COc1ccc(-c2nc3ccc(I)cc3c(=O)[nH]2)c(OC)c1 [GL513]	36 nM	26200 nM	121 nM and 75 nM and 91 nM						HEK cell viability % at 10 μM (HEK): 83.4%
C#CCn1c(-c2ccc(OC)cc2OC)nc2ccc(I)cc2c1=O [GL514]	660 nM	105000 nM	4420 nM and 3500 nM						HEK cell viability % at 10 μM (HEK): 72.5%
C#CCOc1ccc(-c2nc3ccc(I)cc3c(=O)[nH]2)cc1 [GL516]	14 nM	126000 nM	4580 nM and 2460 nM and 1900 nM						HEK cell viability % at 10 μM (HEK): 40.8%
COc1ccc(-c2nc3ccccc3c(=O)n2C)c(OC)c1 [GL517]	> 500 nM	146000 nM	> 10000 nM						HEK cell viability % at 10 μM (HEK): 107%
N#CCOc1ccc(-c2nc3ccccc3c(=O)[nH]2)cc1 [GL520]	0.88 nM and 0.92 nM	1740 nM	2570 nM						HEK cell viability % at 10 μM (HEK): 89%
N#CCOc1ccc(/C=C/c2ccncn2)cc1 [GL543]	4.9 nM and 6.4 nM		> 10000 nM						IC50 (CYP1B1 [1]; Table 1, read-out: CYP1B1 IC50): 4.9 nM; IC50 at 72 h [2, 7]: > 10000 nM; IC50 (CYP1A1; Table 1, read-out: CYP1A1 IC50): > 10000 nM; IC50 ([3]; Table 1, read-out: hLM IC50): > 10000 nM
N#CCOc1ccc(-c2nc(OCC#N)c3ccccc3n2)cc1 [GL547]	< 0.25 nM	3000 nM	3730 nM and 2690 nM						effect of binding on CYP1B1 protein (CYP1B1 [4]): causes degradation of CYP1B1; IC50 (CYP1B1 [1]; Table 1, read-out: CYP1B1 IC50): 0.024 nM; IC50 at 72 h [2, 7]: > 10000 nM; activity of CYP1A1 over 24 h (CYP1A1; 1 μM, 24 h, FIG. 2D): no loss in activity; IC50 (CYP1A1; Table 1, read-out: CYP1A1 IC50): 1400 nM; increase in cell death (MCF7 tumor spheroids): 75%; IC50 ([3]; Table 1, read-out: hLM IC50): 4000 nM; time CYP activity is suppressed after wash out (CYP1B1 [5]): > 10 h
N#CCOc1ccc(-c2nc(OCCCNC(=O)OCCOCCOCCOC(=O)NC34CC5CC(CC(C5)C3)C4)c3ccccc3n2)cc1 [GL581]	< 2.5 nM	> 10000 nM	3580 nM						IC50 (CYP1B1 [1]; Table 1, read-out: CYP1B1 IC50): 0.12 nM; IC50 at 72 h [2, 7]: > 10000 nM; IC50 (CYP1A1; Table 1, read-out: CYP1A1 IC50): 3600 nM
COc1ccc(-c2csc(-c3ccc(O)cc3)n2)c(OC)c1 [GL650]				61.9 nM	1960 nM	32	5550 nM	89.7	
COc1ccc(-c2csc(-c3cccnc3)n2)c(OC)c1 [GL654]				19.8 nM	151 nM	7.6	0.1 nM	0.00082	
Oc1ccc(-c2csc(-c3cccnc3)n2)cc1 [GL671]				2230 nM	1410 nM	0.63	526 nM	0.024	
Oc1ccc(-c2csc(-c3ccccn3)n2)cc1 [GL672]				1020 nM	1320 nM	1.3	1650 nM	1.63	
COc1ccc(-c2nc(-c3ccc(F)c(C(F)(F)F)c3)cs2)c(OC)c1 [GL674]				0.98 nM	5080 nM	5187	> 10000 nM	>10204	
c1ccc(-c2nc(-c3cccnc3)cs2)nc1 [GL681]				2390 nM	85 nM	0.035	3240 nM	0.14	
COc1cc(OC)cc(-c2nc(-c3ccc(F)cc3)cs2)c1 [GL683]				< 0.01 nM			> 10000 nM		
COc1cc(OC)cc(-c2nc(-c3cccc(C(F)(F)F)c3)cs2)c1 [GL684]				< 0.01 nM	2780 nM	>27800	> 10000 nM	>1000000	

— patent publication US20210246109A1, “POTENT AND SELECTIVE INHIBITORS OF CYTOCHROME P450” (University of Kentucky Research Foundation, priority 2020, published 2021)
